This is an account of results in patent US6303751A, “Human metabotropic glutamate receptor and related DNA compounds” (Eli Lilly and Company, priority 1995, dated 2001).

The structures appear in SMILES notation.

The test system of experiment [1] is HSmGluR1 receptor (human metabotropic glutamate receptor) in AV12/pRS121 cells. Nature of the experiment: PI hydrolysis in AV12/pRS121 cells (PI assay). In kind it is cell-based. The note with it: 10 μM, one hour at 37° C. The protocol: (§1) PI hydrolysis in clonal cell lines of AV12/pRS121 cells was measured in response to glutamate agonists as a functional assay for metabotropic glutamate receptor activity according to Schoepp, 11 TiPS 508 (1990).
(§2) Twenty-four-well tissue-culture vessels were seeded with approximately 250,000 cells per well in D-MEM (in the absence of glutamic acid) which contained […] and 10% dialyzed fetal calf serum. Four microcuries of ^3 H-myoinositol were then added to each well and the cultures were incubated for 48 hours at 37° C. The wells were then rinsed with serum-free medium which contained 10 mM LiCl and 10 mM myoinositol. Some wells were then exposed to medium with glutamate agonists for one hour at 37° C., and some wells were at the same time exposed to medium without glutamate agonists for one hour at 37° C.
(§3) The reactions were terminated by removing the media and adding 0.5 ml acetone-methanol (1:1). The cells were then incubated at 4° C. for 20 minutes. The acetone-methanol solutions were recovered from the wells and were placed into centrifuge tubes. […]
(§4) Labeled phosphoinositides were eluted from the cartridges with 4 ml of a solution which contained: 0.1 M ammonium formate; 0.1 M formic acid and 5 mM sodium tetraborate. […] Scintillation counting fluid (Ready Solv HP) was added to the vials and the radioactivity was determined in a Beckmann Scintillation Counter.

Experiment [2] concerns control AV12 cells. Nature of the experiment: PI hydrolysis in control AV12 cells (PI assay). The following applies: quisqualate 10 μM. In kind it is cell-based. The procedure: as §1, §2, §3, §4

As to `N[C@@H](Cn1oc(=O)[nH]c1=O)C(=O)O` [quisqualate], in experiment [1], the “increase in PI hydrolysis over the basal level” value was 200 to 300%. Also, the “increase in PI hydrolysis over basal levels” value in experiment [2] is recorded as “No increase”.
